# From ChEMBL document CHEMBL1125767, “New 5H-pyridazino[4,5-b]indole derivatives. Synthesis and studies as inhibitors of blood platelet aggregation and inotropics” (J Med Chem, 1991)
# Assays:
# [1] = species: Cavia porcellus; assay: Inhibition of ADP-induced platelet aggregation in guinea pig whole blood at 5*10e-3 M; assay type: functional
# [2] = target: T1, Thromboxane-A synthase (Homo sapiens) (UniProt P24557); assay: In vitro inhibitory activity against thromboxane B2 synthetase in platelet aggregation induced by arachidonic acid at 5*10e-3 M concentration; (Change from basal value); assay type: functional
# T1 sequence (whole entry): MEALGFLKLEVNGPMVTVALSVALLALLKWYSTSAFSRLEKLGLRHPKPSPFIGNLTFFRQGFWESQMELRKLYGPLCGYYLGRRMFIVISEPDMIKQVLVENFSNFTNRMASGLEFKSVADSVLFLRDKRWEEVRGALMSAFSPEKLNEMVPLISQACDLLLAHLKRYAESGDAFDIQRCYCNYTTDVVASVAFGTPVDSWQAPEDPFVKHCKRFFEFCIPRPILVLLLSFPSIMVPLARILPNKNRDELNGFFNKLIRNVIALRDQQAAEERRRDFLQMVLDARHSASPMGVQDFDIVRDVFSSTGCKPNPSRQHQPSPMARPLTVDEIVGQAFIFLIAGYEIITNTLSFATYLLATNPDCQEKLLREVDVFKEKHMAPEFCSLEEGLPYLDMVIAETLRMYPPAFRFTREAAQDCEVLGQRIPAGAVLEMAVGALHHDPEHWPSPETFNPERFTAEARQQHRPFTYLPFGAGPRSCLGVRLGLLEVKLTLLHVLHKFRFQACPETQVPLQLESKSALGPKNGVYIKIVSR
# [3] = species: Homo sapiens; assay: Inhibition of adrenaline induced platelet aggregation in human platelet rich plasma at 10e-5 M; assay type: functional
# [4] = species: Homo sapiens; assay: Inhibition of arachidinoc acid induced platelet in human platelet rich plasma at 10e-5 M; assay type: functional
# [5] = species: Homo sapiens; assay: Inhibition of ADP-induced platelet aggregation in human platelet rich plasma at 10e-5 M; assay type: functional
# [6] = target: T1, Thromboxane-A synthase (Homo sapiens); assay: In vitro inhibitory activity against prostaglandin E2 in platelet aggregation induced by arachidonic acid at 5*10e-3 M concentration; (Change from basal value); assay type: functional
# [7] = (§1) Inhibition of arachidonic acid induced platelet aggregation in guinea pig whole blood at 5*10e-4 M; assay type: functional, Cavia porcellus
# [8] = species: Cavia porcellus; assay: Inhibition of arachidonic acid induced platelet aggregation in guinea pig whole blood at 5*10e-3 M; assay type: functional
# [9] = (§2) Inhibition of ADP-induced platelet aggregation in guinea pig whole blood at 5*10e-4 M; assay type: functional, Cavia porcellus
# [10] = species: Homo sapiens; assay: Inhibition of collagen induced platelet aggregation in human platelet rich plasma at 10e-5 M; assay type: functional
# [11] = species: Cavia porcellus; assay: as §1; assay type: functional
# [12] = species: Cavia porcellus; assay: as §2; assay type: functional
# [13] = test system: PDE4 (Canis lupus familiaris); assay: Inhibition of canine heart Phosphodiesterase 4 at 100 uM
# [14] = species: Cavia porcellus; assay: Inhibition of arachidonic acid induced platelet aggregation in guinea pig whole blood at 10e-4 M; assay type: functional
# [15] = species: Cavia porcellus; assay: Inhibition of ADP-induced platelet aggregation in guinea pig whole blood at 10e-4 M; assay type: functional
# [16] = species: Cavia porcellus; assay: Inhibition of arachidonic acid induced platelet aggregation in guinea pig whole blood at 5*10e-4 M (not determined); assay type: functional
# [17] = In vitro inhibitory activity against prostaglandin E2 in platelet aggregation induced by arachidonic acid at 5*10e-4 M concentration.; assay type: functional
# [18] = species: Homo sapiens; assay: Inhibition of collagen induced platelet aggregation in human platelet rich plasma at 7.5*10e-5 M; assay type: functional
# [19] = species: Homo sapiens; assay: Inhibition of collagen induced platelet aggregation in human platelet rich plasma at 5*10e-5 M; assay type: functional
# [20] = target: PDE4 (Canis lupus familiaris); assay: Inhibition of canine heart phosphodiesterase 4
# [21] = species: Cavia porcellus; assay: Inhibition of ADP-induced platelet aggregation in guinea pig whole blood at 5*10e-5 M; assay type: functional
# [22] = species: Homo sapiens; assay: Inhibition of ADP-induced platelet aggregation in human platelet rich plasma at 5*10e-5 M; assay type: functional
# [23] = species: Homo sapiens; assay: Inhibition of ADP-induced platelet aggregation in human platelet rich plasma at 7.5*10e-5 M; assay type: functional
# [24] = species: Cavia porcellus; assay: Inhibition of arachidonic acid induced platelet aggregation in guinea pig whole blood at 5*10e-5 M; assay type: functional
# [25] = species: Homo sapiens; assay: Inhibition of arachidinoc acid induced platelet in human platelet rich plasma at 7.5*10e-5 M.; assay type: functional
# [26] = species: Homo sapiens; assay: Inhibition of adrenaline induced platelet aggregation in human platelet rich plasma at 5*10e-5 M; assay type: functional
# [27] = species: Homo sapiens; assay: Inhibition of adrenaline induced platelet aggregation in human platelet rich plasma at 7.5*10e-5 M; assay type: functional
# [28] = species: Homo sapiens; assay: Inhibition of arachidinoc acid induced platelet in human platelet rich plasma at 5*10e-5 M; assay type: functional
# [29] = species: Homo sapiens; assay: nhibition of ADP-induced platelet aggregation in human platelet rich plasma at 5*10e-5 M; assay type: functional
# [30] = species: Homo sapiens; assay: Inhibition of arachidonic acid induced platelet aggregation in human platelet rich plasma at 5*10e-5 M; assay type: functional
# [31] = test system: PDE4 (Canis lupus familiaris); assay: Inhibition of canine heart Phosphodiesterase 4 at 50 uM
# [32] = species: Cavia porcellus; assay: Inhibition of arachidonic acid induced platelet aggregation in guinea pig whole blood at 10e-5 M; assay type: functional
# [33] = species: Cavia porcellus; assay: Inhibition of arachidonic acid induced platelet aggregation in guinea pig whole blood at 10e-6 M; assay type: functional
# [34] = In vitro inhibitory activity against prostaglandin E2 in platelet aggregation induced by arachidonic acid at 5*10e-5 M concentration.; assay type: functional
# [35] = species: Homo sapiens; assay: Inhibition of arachidonic acid induced platelet aggregation in human platelet rich plasma at 10e-5 M; assay type: functional
# [36] = species: Cavia porcellus; assay: Inhibition of arachidonic acid induced platelet aggregation in guinea pig whole blood at 5*10e-6 M; assay type: functional
# [37] = In vitro inhibitory activity against prostaglandin E2 in platelet aggregation induced by arachidonic acid at 10e-4 M concentration.; assay type: functional
# [38] = target: T1, Thromboxane-A synthase (Homo sapiens); assay: In vitro inhibitory activity against prostaglandin E2 in platelet aggregation induced by arachidonic acid at 10e-4 M concentration; (Change from basal value); assay type: functional
# [39] = target: T1, Thromboxane-A synthase (Homo sapiens); assay: In vitro inhibitory activity against prostaglandin E2 in platelet aggregation induced by arachidonic acid at 5*10e-4 M concentration; (Change from basal value); assay type: functional
# [40] = target: T1, Thromboxane-A synthase (Homo sapiens); assay: In vitro inhibitory activity against thromboxane B2 synthetase in platelet aggregation induced by arachidonic acid at 10e-4 M concentration; (Change from basal value); assay type: functional
# [41] = target: T1, Thromboxane-A synthase (Homo sapiens); assay: In vitro inhibitory activity against thromboxane B2 synthetase in platelet aggregation induced by arachidonic acid at 5*10e-4 M concentration; (Change from basal value); assay type: functional
compound,measurement,setting,value
CC(=O)Oc1ccccc1C(=O)O [ASPIRIN],Inhibition,[1],15%
same,Thromboxane B2 level,[2],-100%
same,inhibition at 10 µM,[3],38.3%
same,inhibition at 10 µM,[4],90%
same,inhibition at 10 µM,[5],20%
same,Prostaglandin E2 level,[6],-100%
same,Inhibition,[7],100%
same,Inhibition,[8],30%
same,Inhibition,[9],100%
same,inhibition at 10 µM,[10],52%
Cc1cc(C)n(-c2[nH]nc(Cl)c3c4ccccc4nc2-3)n1,Inhibition,[11],46.17%
same,Inhibition,[12],31%
NNc1nncc2ccccc12 [HYDRALAZINE],Inhibition,[11],20%
same,Inhibition,[12],0%
CCOC(=O)c1n[nH]c2c3nc4ccccc4c-3c(Cl)nn12,Inhibition,[11],13.4%
same,inhibition,[13],37%
same,Inhibition,[12],57.63%
COc1ccccc1N1CCN(c2n[nH]c(N3CCN(c4ccccc4OC)CC3)c3c4ccccc4nc2-3)CC1,inhibition at 100 µM,[14],26.6%
same,Inhibition,[11],56.13%
same,inhibition,[13],7.52%
same,inhibition at 100 µM,[15],0%
same,Inhibition,[12],64%
NNC(=O)c1n[nH]c2c3nc4ccccc4c-3c(NN)nn12 [listing 1 of 3 here],inhibition at 100 µM,[14],38.3%
same,inhibition at 100 µM,[15],8.25%
COc1ccc(N2CCN(c3[nH]nc(-n4nc(C)cc4C)c4nc5ccccc5c3-4)CC2)cc1,inhibition,[13],4.8%
Nc1cc(-c2ccncc2)c[nH]c1=O [INAMRINONE],Inhibition,[11],100%
same,Inhibition,[12],49%
Cc1cc(C)n(-c2[nH]nc(NN)c3c4ccccc4nc2-3)n1 [listing 1 of 2 here],Inhibition,[16],92.14%
same,Inhibition,[17],96%
same,Inhibition,[12],67.83%
Cc1cc(C)n(-c2n[nH]c(N3CCN(C)CC3)c3c4ccccc4nc2-3)n1,Inhibition,[11],78.25%
same,inhibition,[13],33.4%
same,Inhibition,[12],89.25%
Cc1cc(C)n(-c2[nH]nc(NN)c3c4ccccc4nc2-3)n1.Cl,Inhibition,[18],78.4%
same,Inhibition,[19],0%
same,IC50,[20],348 µM
same,Inhibition,[21],0%
same,Inhibition,[22],22%
same,Inhibition,[23],23%
same,inhibition at 100 µM,[14],83%
same,Inhibition,[24],0%
same,Inhibition,[17],11.8%
same,Inhibition,[11],97%
same,inhibition at 100 µM,[15],23%
same,Inhibition,[25],6.5%
same,Inhibition,[12],90%
same,Inhibition,[26],0%
same,Inhibition,[27],22%
same,Inhibition,[28],4.8%
CNNc1[nH]nc(-n2nc(C)cc2C)c2nc3ccccc3c1-2,Inhibition,[19],0%
same,IC50,[20],118 µM
same,inhibition at 100 µM,[14],7.86%
same,Inhibition,[17],-72.8%
same,Inhibition,[11],100%
same,inhibition,[13],44.8%
same,inhibition at 100 µM,[15],0%
same,Inhibition,[12],33.8%
same,Inhibition,[26],0%
same,Inhibition,[29],0%
same,Inhibition,[30],0%
Cc1cc(C)n(-c2[nH]nc(N3CCN(c4ccc(F)cc4)CC3)c3c4ccccc4nc2-3)n1,inhibition,[31],2.52%
Cc1cc(C)n(-c2[nH]nc(NN)c3c4ccccc4nc2-3)n1 [listing 2 of 2 here],inhibition,[13],9.39%
Cc1cc(C)n(-c2[nH]nc(N3CCCCC3)c3c4ccccc4nc2-3)n1,inhibition at 10 µM,[32],67.5%
same,inhibition at 100 µM,[14],99.4%
same,Inhibition,[24],99.5%
same,inhibition at 10 µM,[3],42.5%
same,Inhibition,[17],-80.4%
same,inhibition at 10 µM,[5],23.9%
same,Inhibition,[11],100%
same,inhibition,[13],32.8%
same,inhibition at 100 µM,[15],0%
same,inhibition at 1 µM,[33],0%
same,Inhibition,[34],-100%
same,inhibition at 10 µM,[35],83.8%
same,Inhibition,[36],26.38%
same,inhibition at 100 µM,[37],-91%
same,Inhibition,[12],64.83%
same,inhibition at 10 µM,[10],0%
CCOc1ccccc1N1CCN(c2[nH]nc(-n3nc(C)cc3C)c3nc4ccccc4c2-3)CC1,inhibition,[31],17.6%
COc1ccccc1N1CCN(c2[nH]nc(-n3nc(C)cc3C)c3nc4ccccc4c2-3)CC1,inhibition,[31],11.9%
Cc1cc(C)n(-c2[nH]nc(N3CCOCC3)c3c4ccccc4nc2-3)n1,inhibition at 10 µM,[32],0%
same,inhibition at 100 µM,[14],99.4%
same,Inhibition,[24],59.83%
same,inhibition at 10 µM,[3],0%
same,Inhibition,[17],-78%
same,inhibition at 10 µM,[5],24.8%
same,Inhibition,[11],100%
same,inhibition,[13],38%
same,inhibition at 100 µM,[15],0%
same,inhibition at 10 µM,[35],3.35%
same,inhibition at 100 µM,[37],-80%
same,Inhibition,[12],47.83%
same,inhibition at 10 µM,[10],36.6%
NNC(=O)c1n[nH]c2c3nc4ccccc4c-3c(NN)nn12 [listing 2 of 3 here],inhibition,[13],55.9%
Cc1cc(C)n(-c2n[nH]c(-n3nc(C)cc3C)c3c4ccccc4nc2-3)n1,inhibition,[13],29.5%
NNC(=O)c1n[nH]c2c3nc4ccccc4c-3c(NN)nn12 [listing 3 of 3 here],IC50,[20],121 µM
c1ccc2c(c1)[nH]c1c(-c3ncc[nH]3)nnc(-c3ncc[nH]3)c12,Prostaglandin E2 level,[38],518%
same,inhibition at 100 µM,[14],100%
same,Prostaglandin E2 level,[39],119%
same,Inhibition,[11],98.88%
same,Thromboxane B2 level,[40],-61%
same,inhibition at 100 µM,[15],23.2%
same,Inhibition,[12],24.25%
same,Thromboxane B2 level,[41],-31%
